Results reported in ChEMBL document CHEMBL3244293, “Antiallergic activity of some 9H-xanthen-9-one-2-carboxylic acids” (J Med Chem, 1978).

What was measured:
Rattus norvegicus [1] = assay: (§1) Antiallergic activity in anti-Nippostrongylus brasiliensis homocytotropic antibody-injected Sprague-Dawley rat assessed as inhibition of passive cutaneous anaphylaxis reaction at 10 mg/kg, ip administered 15 mins prior to worm extract antigen challenge measured 45 mins following antigen challenge by Evans blue dye staining; format: functional; conditions: route intraperitoneal; for inhibition in vivo at 10 mg/kg: Rattus norvegicus, Sprague-Dawley, ip
[2] = 1-Octanol-citrate buffer partition coefficient, log P of the compound at pH 4.0 by UV spectrometry; format: physicochemical
Rattus norvegicus [3] = assay: as §1, with “at 25” for “at 10”, “mg/kg, po” for “mg/kg, ip”, “administered 8” for “administered 15”; format: functional
Rattus norvegicus [4] = assay: as §1, with “5” for “10”; format: functional; conditions: route intraperitoneal

Compound	inhibition in vivo at 10 mg/kg (Rattus norvegicus [1]) [%]	log(%) (Rattus norvegicus [1])	logD [2]	inhibition in vivo at 25 mg/kg (Rattus norvegicus [3]) [%]	inhibition in vivo at 5 mg/kg (Rattus norvegicus [4]) [%]
CCCCCCCSCC(O)COc1ccc2oc3ccc(C(=O)O)cc3c(=O)c2c1 (stereo not given)	17	1.23	2.81		
O=C(O)c1ccc2oc3ccc(OCC(O)COCC(F)(F)F)cc3c(=O)c2c1 (stereo not given)	100	2	3.14	0	
O=C(O)c1cc(=O)c2c(OCC(O)COc3cccc4oc(C(=O)O)cc(=O)c34)cccc2o1 [CROMOLYN SODIUM]	89				
O=C(O)c1ccc2oc3ccc(OCC(O)CO)cc3c(=O)c2c1 (stereo not given)	78	1.89	2.33	19	
O=C(O)c1ccc2oc3ccc(OCC(O)CSC4CCCCC4)cc3c(=O)c2c1 (stereo not given)	39	1.59	2.95		
O=C(O)c1ccc2oc3ccc(OCCO)cc3c(=O)c2c1	100			100	100
O=C(O)c1ccc2oc3ccc(OCC(O)C[S+]([O-])c4ccccc4)cc3c(=O)c2c1 (stereo not given)					42
O=C(O)c1ccc2oc3ccc(OCC(O)CSC45CC6CC(CC(C6)C4)C5)cc3c(=O)c2c1 (stereo not given)	16	1.2	2.58		
CC(C)SCC(O)COc1ccc2oc3ccc(C(=O)O)cc3c(=O)c2c1 (stereo not given)	38	1.54	3.06		
COc1ccc(SCC(O)COc2ccc3oc4ccc(C(=O)O)cc4c(=O)c3c2)cc1 (stereo not given)					51
O=C(O)c1ccc2oc3ccc(OCC(O)CSc4ccc(Br)cc4)cc3c(=O)c2c1 (stereo not given)					14
O=C(O)c1ccc2oc3ccc(OCC(O)CSc4ccccc4)cc3c(=O)c2c1 (stereo not given)	100	2	3.8	22	88
O=C(O)c1ccc2oc3ccc(OCC(O)CSc4ccc(Cl)cc4)cc3c(=O)c2c1 (stereo not given)					37
O=C(O)c1ccc2oc3ccc(OCC(O)CSc4ccc(Cl)c(Cl)c4)cc3c(=O)c2c1 (stereo not given)					7
CSCC(O)COc1ccc2oc3ccc(C(=O)O)cc3c(=O)c2c1 (stereo not given)	71	1.85	2.81	48	
O=C(O)c1ccc2oc3ccc(OCC(O)COCCO)cc3c(=O)c2c1 (stereo not given)	77	1.89	2.31		
O=C(O)c1ccc2oc3ccc(OCC(O)CSc4ccc(F)cc4)cc3c(=O)c2c1 (stereo not given)					38
C[S+]([O-])CC(O)COc1ccc2oc3ccc(C(=O)O)cc3c(=O)c2c1 (stereo not given)	100	2	1.36	0	
COCCOCC(O)COc1ccc2oc3ccc(C(=O)O)cc3c(=O)c2c1 (stereo not given)	99	2	2.08	15	
O=C(O)c1ccc2oc3ccc(OCC(O)CSCCO)cc3c(=O)c2c1 (stereo not given)	100	2	2.32	0	
COCC(O)COc1ccc2oc3ccc(C(=O)O)cc3c(=O)c2c1 (stereo not given)	29	1.46	2.13		
CC(C)(C)SCC(O)COc1ccc2oc3ccc(C(=O)O)cc3c(=O)c2c1 (stereo not given)	83	1.92	2.83		
